Experimental data from PubChem BioAssay AID1963848 (Molecular Pharmacology Branch, DTP, NCI, 2024).

Tested on: 379773-124-R-J2-PDC spheroid viability
Assay: Anticancer human tumor 379773-124-R-J2-PDC patient-derived endometrial carcinoma cell line growth inhibition [POLQ]
Conditions: spheroids with HUVEC and MSC; for IC50: curve of first compound; for viability, T/C: stronger effect = lower value
Summary of the method: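 Growth inhibition in 3D: complex spheroids (tumor PDC, HUVEC, MSC) treated with POLQ inhibitor combinations; where Cmax unknown, highest tested concentration 10 microM, except SN-38 at 1 microM.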

[1] = second compound 0.0316 µM, first compound 0.0316 µM
[2] = second compound 0.0316 µM, first compound 0.1 µM
[3] = second compound 0.0316 µM, first compound 0.316 µM
[4] = second compound 0.0316 µM, first compound 1 µM
[5] = second compound 0.0316 µM, first compound 3.16 µM
[6] = second compound 0.0316 µM, first compound 10 µM
[7] = second compound 0.1 µM, first compound 0.0316 µM
[8] = second compound 0.1 µM, first compound 0.1 µM
[9] = second compound 0.1 µM, first compound 0.316 µM
[10] = second compound 0.1 µM, first compound 1 µM
[11] = second compound 0.1 µM, first compound 3.16 µM
[12] = second compound 0.1 µM, first compound 10 µM
[13] = second compound 0.316 µM, first compound 0.0316 µM
[14] = second compound 0.316 µM, first compound 0.1 µM
[15] = second compound 0.316 µM, first compound 0.316 µM
[16] = second compound 0.316 µM, first compound 1 µM
[17] = second compound 0.316 µM, first compound 3.16 µM
[18] = second compound 0.316 µM, first compound 10 µM
[19] = second compound 1 µM, first compound 0.0316 µM
[20] = second compound 1 µM, first compound 0.1 µM
[21] = second compound 1 µM, first compound 0.316 µM
[22] = second compound 1 µM, first compound 1 µM
[23] = second compound 1 µM, first compound 3.16 µM
[24] = second compound 1 µM, first compound 10 µM
[25] = second compound 3.16 µM, first compound 0.0316 µM
[26] = second compound 3.16 µM, first compound 0.1 µM
[27] = second compound 3.16 µM, first compound 0.316 µM
[28] = second compound 3.16 µM, first compound 1 µM
[29] = second compound 3.16 µM, first compound 3.16 µM
[30] = second compound 3.16 µM, first compound 10 µM
[31] = second compound 10 µM, first compound 0.0316 µM
[32] = second compound 10 µM, first compound 0.1 µM
[33] = second compound 10 µM, first compound 0.316 µM
[34] = second compound 10 µM, first compound 1 µM
[35] = second compound 10 µM, first compound 3.16 µM
[36] = second compound 10 µM, first compound 10 µM
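Also: spheroids exposed to drugs for seven days before readout.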
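For viability, T/C in this document: percent viability relative to DMSO vehicle control taken as 100%.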

Q: Which IC50 (second compound 0.0316 µM) does the source give for `COc1cc2cc(C(=O)CCC(=O)O)sc2cc1OC` + COC1C(OC(N)=O)C(O)C(Oc2ccc3c(O)c(NC(=O)c4ccc(O)c(CC=C(C)C)c4)c(=O)oc3c2C)OC1(C)C here?
A: > 10 µM

Q: What about the IC50 (second compound 0.1 µM) of the same compound?
A: > 10 µM

Q: And the IC50 (second compound 0.316 µM)?
A: > 10 µM

Q: And the IC50 (second compound 1 µM)?
A: > 10 µM

Q: What about the IC50 (second compound 3.16 µM) of the same compound?
A: > 10 µM

Q: And the IC50 (second compound 10 µM)?
A: > 10 µM

Q: What about the viability, T/C [1] of the same compound?
A: 85.9%

Q: And the viability, T/C [2]?
A: 75.8%

Q: And the viability, T/C [3]?
A: 92.1%

Q: What about the viability, T/C [4] of the same compound?
A: 82.5%

Q: What about the viability, T/C [5] of the same compound?
A: 78%

Q: And the viability, T/C [6]?
A: 91.4%

Q: What about the viability, T/C [7] of the same compound?
A: 88.2%

Q: And the viability, T/C [8]?
A: 82%

Q: And the viability, T/C [9]?
A: 90.2%

Q: What about the viability, T/C [10] of the same compound?
A: 83.3%

Q: And the viability, T/C [11]?
A: 85.5%

Q: What about the viability, T/C [12] of the same compound?
A: 96.6%

Q: And the viability, T/C [13]?
A: 96%

Q: What about the viability, T/C [14] of the same compound?
A: 83.6%

Q: And the viability, T/C [15]?
A: 76.5%

Q: What about the viability, T/C [16] of the same compound?
A: 82.1%

Q: What about the viability, T/C [17] of the same compound?
A: 81%

Q: What about the viability, T/C [18] of the same compound?
A: 84.6%

Q: What about the viability, T/C [19] of the same compound?
A: 82.7%

Q: What about the viability, T/C [20] of the same compound?
A: 84.1%

Q: And the viability, T/C [21]?
A: 90.9%

Q: And the viability, T/C [22]?
A: 89%

Q: And the viability, T/C [23]?
A: 90%

Q: And the viability, T/C [24]?
A: 78.2%

Q: And the viability, T/C [25]?
A: 99.9%

Q: What about the viability, T/C [26] of the same compound?
A: 82.5%

Q: And the viability, T/C [27]?
A: 78.1%

Q: And the viability, T/C [28]?
A: 78.7%

Q: And the viability, T/C [29]?
A: 90.2%

Q: And the viability, T/C [30]?
A: 85.3%

Q: What about the viability, T/C [31] of the same compound?
A: 92.8%

Q: And the viability, T/C [32]?
A: 86.1%

Q: What about the viability, T/C [33] of the same compound?
A: 86%

Q: What about the viability, T/C [34] of the same compound?
A: 69.2%

Q: What about the viability, T/C [35] of the same compound?
A: 86.1%

Q: What about the viability, T/C [36] of the same compound?
A: 95.4%

Q: Which results are given for `CCc1cc2c(N3CCc4c(cc(Cn5ccnc5)cc4-c4cn(C)nc4C(F)(F)F)C3=O)ccnc2c(OC)n1` + Cc1cccc(N(C)C(=O)C2C(O)CCN2c2nc(C)cc(C(F)(F)F)c2C#N)c1?
A: IC50 (second compound 0.0316 µM): > 10 µM; IC50 (second compound 0.1 µM): > 10 µM; IC50 (second compound 0.316 µM): > 10 µM; IC50 (second compound 1 µM): > 10 µM; IC50 (second compound 3.16 µM): > 10 µM; IC50 (second compound 10 µM): 3.73 µM; viability, T/C [1]: 76.1%; viability, T/C [2]: 68.8%; viability, T/C [3]: 73%; viability, T/C [4]: 63.2%; viability, T/C [5]: 59.1%; viability, T/C [6]: 54.5%; viability, T/C [7]: 81.9%; viability, T/C [8]: 71.1%; viability, T/C [9]: 64.3%; viability, T/C [10]: 69.6%; viability, T/C [11]: 55.2%; viability, T/C [12]: 50%; viability, T/C [13]: 71.9%; viability, T/C [14]: 85.3%; viability, T/C [15]: 70.2%; viability, T/C [16]: 64.8%; viability, T/C [17]: 55.5%; viability, T/C [18]: 53%; viability, T/C [19]: 83.6%; viability, T/C [20]: 68.9%; viability, T/C [21]: 65%; viability, T/C [22]: 63.7%; viability, T/C [23]: 55.9%; viability, T/C [24]: 50.2%; viability, T/C [25]: 73.5%; viability, T/C [26]: 80.8%; viability, T/C [27]: 60.9%; viability, T/C [28]: 65.2%; viability, T/C [29]: 58.8%; viability, T/C [30]: 55.7%; viability, T/C [31]: 69.6%; viability, T/C [32]: 68.2%; viability, T/C [33]: 62%; viability, T/C [34]: 57.9%; viability, T/C [35]: 50.1%; viability, T/C [36]: 44.2%
